ChEMBL document CHEMBL1909046, “DrugMatrix in vitro pharmacology data”

Columns and labels:
[1] = target: Receptor tyrosine-protein kinase erbB-2 (Homo sapiens, UniProt P04626); format: cell-based; settings: insect cells;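 also: inhibition of HER2 kinase enzyme activity, measured with Poly(Glu:Tyr) as the phosphorylation substrate; in other assays of this panel Not Active means under 50% inhibition at 10 µM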
[2] = target: Sigma non-opioid intracellular receptor 1 (Homo sapiens, UniProt Q99720); experiment: DRUGMATRIX: Sigma1 radioligand binding (ligand: [3H] Haloperidol); format: cell membranes, Jurkat, Membrane; settings: jurkat; Not Active = under 50% inhibition at 10 µM
[3] = target: T1, Amine oxidase [flavin-containing] A (Homo sapiens, UniProt P21397); experiment: DRUGMATRIX: Monoamine Oxidase MAO-A enzyme inhibition (substrate: Kynuramine); parameters: species or system BTI-TN-5B1-4; settings: bti-tn-5b1-4; Not Active = under 50% inhibition at 10 µM
T1 sequence (P21397 whole entry): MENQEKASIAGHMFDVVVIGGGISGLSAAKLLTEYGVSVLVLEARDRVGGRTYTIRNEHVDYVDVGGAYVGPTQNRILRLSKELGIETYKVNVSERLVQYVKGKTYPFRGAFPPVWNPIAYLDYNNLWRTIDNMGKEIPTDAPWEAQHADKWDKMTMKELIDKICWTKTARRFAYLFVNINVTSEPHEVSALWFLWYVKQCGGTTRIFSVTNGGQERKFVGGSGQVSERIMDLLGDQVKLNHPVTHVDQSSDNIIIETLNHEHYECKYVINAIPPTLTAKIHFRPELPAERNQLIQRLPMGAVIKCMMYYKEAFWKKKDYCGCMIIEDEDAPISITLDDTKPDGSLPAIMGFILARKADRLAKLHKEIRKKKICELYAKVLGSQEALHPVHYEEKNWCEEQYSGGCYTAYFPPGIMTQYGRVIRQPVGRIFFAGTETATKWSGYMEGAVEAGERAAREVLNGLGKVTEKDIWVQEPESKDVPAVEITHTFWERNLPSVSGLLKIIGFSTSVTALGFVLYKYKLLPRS

[4] = target: T2, Cholecystokinin receptor type A (Homo sapiens, UniProt P32238); format: cell membranes, Membrane; settings: 1321-n1; also: in other assays of this panel Not Active means under 50% inhibition at 10 µM
T2 sequence (P32238 whole entry): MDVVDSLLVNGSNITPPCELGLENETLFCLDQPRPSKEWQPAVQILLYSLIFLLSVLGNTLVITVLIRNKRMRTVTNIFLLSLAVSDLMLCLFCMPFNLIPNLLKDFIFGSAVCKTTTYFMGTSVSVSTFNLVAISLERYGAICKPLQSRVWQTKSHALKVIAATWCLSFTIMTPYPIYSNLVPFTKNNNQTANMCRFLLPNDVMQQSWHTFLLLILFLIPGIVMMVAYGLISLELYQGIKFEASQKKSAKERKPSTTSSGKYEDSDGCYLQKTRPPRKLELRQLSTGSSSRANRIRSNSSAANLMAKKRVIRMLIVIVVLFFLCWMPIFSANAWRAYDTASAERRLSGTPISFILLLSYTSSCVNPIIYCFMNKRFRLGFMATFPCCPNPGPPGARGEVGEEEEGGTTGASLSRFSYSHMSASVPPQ

[5] = target: Sodium-dependent noradrenaline transporter (Homo sapiens, UniProt P23975); experiment: DRUGMATRIX: Norepinephrine Transporter radioligand binding (ligand: [125I] RTI-55); format: cell membranes, MDCK, Membrane; settings: mdck; Not Active = under 50% inhibition at 10 µM
Cytochrome P450 2A6 = target: T3, Cytochrome P450 2A6 (Homo sapiens, UniProt P11509); settings: bti-tn-5b1-4; also: in other assays of this panel Not Active means under 50% inhibition at 10 µM
T3 sequence (P11509 whole entry): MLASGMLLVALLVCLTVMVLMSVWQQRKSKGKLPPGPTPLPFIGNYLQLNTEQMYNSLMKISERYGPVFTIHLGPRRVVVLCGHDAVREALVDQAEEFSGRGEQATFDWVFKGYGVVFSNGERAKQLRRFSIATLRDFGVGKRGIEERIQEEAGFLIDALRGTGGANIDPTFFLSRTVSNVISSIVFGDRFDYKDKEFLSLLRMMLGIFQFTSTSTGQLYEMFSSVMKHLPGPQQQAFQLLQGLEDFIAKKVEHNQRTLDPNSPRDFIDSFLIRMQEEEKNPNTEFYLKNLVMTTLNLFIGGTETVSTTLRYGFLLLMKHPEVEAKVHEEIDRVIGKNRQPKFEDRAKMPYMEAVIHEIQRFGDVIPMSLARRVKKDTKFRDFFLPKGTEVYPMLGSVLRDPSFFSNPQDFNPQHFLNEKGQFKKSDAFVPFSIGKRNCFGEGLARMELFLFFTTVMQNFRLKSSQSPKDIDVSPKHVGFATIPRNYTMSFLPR

[6] = target: Aldo-keto reductase family 1 member B1 (Rattus norvegicus, UniProt P07943); experiment: biochemical; format: tissue-based, Lens of camera-type eye;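 also: inhibition of aldose reductase enzyme activity, measured with DL-glyceraldehyde as the substrate; in other assays of this panel Not Active means under 50% inhibition at 10 µM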

Sequence of Sigma non-opioid intracellular receptor 1 (Q99720 whole entry): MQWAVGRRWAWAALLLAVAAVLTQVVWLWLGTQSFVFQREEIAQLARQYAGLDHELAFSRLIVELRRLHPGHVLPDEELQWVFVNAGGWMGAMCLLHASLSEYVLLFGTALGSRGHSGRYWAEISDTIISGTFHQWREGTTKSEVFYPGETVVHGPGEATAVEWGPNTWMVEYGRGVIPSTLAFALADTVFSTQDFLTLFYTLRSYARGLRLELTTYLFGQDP
Sequence of Receptor tyrosine-protein kinase erbB-2 (P04626 whole entry): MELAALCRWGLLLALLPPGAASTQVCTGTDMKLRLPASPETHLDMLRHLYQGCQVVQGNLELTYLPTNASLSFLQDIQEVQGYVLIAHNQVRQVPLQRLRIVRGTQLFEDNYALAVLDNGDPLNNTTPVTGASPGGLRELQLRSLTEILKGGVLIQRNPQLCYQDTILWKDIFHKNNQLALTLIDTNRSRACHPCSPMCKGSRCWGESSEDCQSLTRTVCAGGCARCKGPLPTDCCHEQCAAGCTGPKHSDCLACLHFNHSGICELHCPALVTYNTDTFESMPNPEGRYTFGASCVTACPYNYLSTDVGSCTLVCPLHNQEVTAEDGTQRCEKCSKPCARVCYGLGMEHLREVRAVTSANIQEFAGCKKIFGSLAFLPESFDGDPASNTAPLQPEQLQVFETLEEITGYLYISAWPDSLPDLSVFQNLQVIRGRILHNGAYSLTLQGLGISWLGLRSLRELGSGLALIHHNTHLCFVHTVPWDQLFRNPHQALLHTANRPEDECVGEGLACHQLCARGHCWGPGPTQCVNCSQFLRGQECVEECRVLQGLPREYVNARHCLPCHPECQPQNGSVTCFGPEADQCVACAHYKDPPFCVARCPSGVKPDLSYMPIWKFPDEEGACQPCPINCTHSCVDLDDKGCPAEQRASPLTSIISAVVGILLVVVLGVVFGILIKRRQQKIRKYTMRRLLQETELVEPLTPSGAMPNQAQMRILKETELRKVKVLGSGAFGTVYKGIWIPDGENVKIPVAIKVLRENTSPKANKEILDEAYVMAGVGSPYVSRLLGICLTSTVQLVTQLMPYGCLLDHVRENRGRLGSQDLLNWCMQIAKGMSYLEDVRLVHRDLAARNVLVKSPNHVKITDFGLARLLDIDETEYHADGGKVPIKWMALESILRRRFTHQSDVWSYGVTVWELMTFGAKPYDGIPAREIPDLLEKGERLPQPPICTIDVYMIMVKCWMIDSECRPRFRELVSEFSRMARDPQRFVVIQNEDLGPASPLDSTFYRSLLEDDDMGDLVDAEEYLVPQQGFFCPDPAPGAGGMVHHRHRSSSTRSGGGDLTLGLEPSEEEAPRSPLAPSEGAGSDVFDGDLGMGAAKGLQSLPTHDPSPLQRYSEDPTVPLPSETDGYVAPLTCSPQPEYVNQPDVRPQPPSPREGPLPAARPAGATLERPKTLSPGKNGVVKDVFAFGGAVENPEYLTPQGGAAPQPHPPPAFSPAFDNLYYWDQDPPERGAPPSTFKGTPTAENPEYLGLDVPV
Sequence of Sodium-dependent noradrenaline transporter (P23975 whole entry): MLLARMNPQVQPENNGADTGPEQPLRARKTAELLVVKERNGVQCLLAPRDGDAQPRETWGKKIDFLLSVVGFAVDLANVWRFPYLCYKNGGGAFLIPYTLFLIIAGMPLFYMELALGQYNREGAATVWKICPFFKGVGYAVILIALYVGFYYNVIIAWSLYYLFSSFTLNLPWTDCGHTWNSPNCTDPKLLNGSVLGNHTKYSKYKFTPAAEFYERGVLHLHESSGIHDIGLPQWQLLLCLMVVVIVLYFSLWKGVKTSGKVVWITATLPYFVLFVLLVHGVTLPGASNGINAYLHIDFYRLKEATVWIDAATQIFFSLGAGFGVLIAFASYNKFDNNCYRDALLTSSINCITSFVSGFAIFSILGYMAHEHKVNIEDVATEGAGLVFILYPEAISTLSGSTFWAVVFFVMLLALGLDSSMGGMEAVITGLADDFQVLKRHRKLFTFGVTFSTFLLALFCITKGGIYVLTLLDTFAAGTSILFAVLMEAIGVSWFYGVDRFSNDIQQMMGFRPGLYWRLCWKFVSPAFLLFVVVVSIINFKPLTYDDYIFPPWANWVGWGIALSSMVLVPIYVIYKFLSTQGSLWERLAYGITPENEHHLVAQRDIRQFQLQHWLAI

COC(=O)C[C@](O)(CCC(C)(C)O)C(=O)O[C@@H]1C(OC)=C[C@]23CCCN2CCc2cc4c(cc2[C@H]13)OCO4 [HARRINGTONINE]
Not Active: IC50 [1] | IC50 [2] | IC50 [3] | IC50 [4] | IC50 [5] | IC50 (Cytochrome P450 2A6) | Ki (Cytochrome P450 2A6) | IC50 [6]

Nc1nc(F)nc2c1ncn2[C@@H]1O[C@H](CO)[C@@H](O)[C@@H]1O [FLUDARABINE]
Not Active: IC50 [1] | IC50 [2] | IC50 [3] | IC50 [4] | IC50 [5] | IC50 (Cytochrome P450 2A6) | Ki (Cytochrome P450 2A6) | IC50 [6]

C=C(Cl)Cl [1,1-DICHLOROETHENE]
Not Active: IC50 [1] | IC50 [2] | IC50 [3] | IC50 [4] | IC50 [5] | IC50 (Cytochrome P450 2A6) | Ki (Cytochrome P450 2A6) | IC50 [6]

CC[C@H]1OC(=O)[C@H](C)[C@@H](O[C@H]2C[C@@](C)(OC)[C@@H](O)[C@H](C)O2)[C@H](C)[C@@H](O[C@@H]2O[C@H](C)C[C@H](N(C)C)[C@H]2O)[C@](C)(O)C[C@@H](C)C(=O)[C@H](C)[C@@H](O)[C@]1(C)O [ERYTHROMYCIN]
Not Active: IC50 [1] | IC50 [2] | IC50 [3] | IC50 [4] | IC50 [5] | IC50 (Cytochrome P450 2A6) | Ki (Cytochrome P450 2A6) | IC50 [6]

CCC1(c2ccccc2)C(=O)NC(=O)NC1=O [PHENOBARBITAL]
Not Active: IC50 [1] | IC50 [2] | IC50 [3] | IC50 [4] | IC50 [5] | IC50 (Cytochrome P450 2A6) | Ki (Cytochrome P450 2A6) | IC50 [6]

CCN1C[C@]2(COC)[C@H](O)C[C@H](OC)[C@@]34[C@@H]5C[C@@]6(O)[C@H](OC(=O)c7ccccc7)[C@@H]5[C@@](OC(C)=O)([C@@H]([C@H](OC)[C@H]23)[C@@H]14)[C@@H](O)[C@@H]6OC [ACONITINE]
Not Active: IC50 [1] | IC50 [2] | IC50 [3] | IC50 [4] | IC50 [5] | IC50 (Cytochrome P450 2A6) | Ki (Cytochrome P450 2A6) | IC50 [6]

CCN1CCN(C(=O)N[C@@H](C(=O)N[C@@H]2C(=O)N3[C@@H]2SC(C)(C)[C@@H]3C(=O)O)c2ccccc2)C(=O)C1=O [PIPERACILLIN]
Not Active: IC50 [1] | IC50 [2] | IC50 [3] | IC50 [4] | IC50 [5] | IC50 (Cytochrome P450 2A6) | Ki (Cytochrome P450 2A6) | IC50 [6]

O=C(O)c1ccccc1 [BENZOIC ACID]
Not Active: IC50 [1] | IC50 [2] | IC50 [3] | IC50 [4] | IC50 [5] | IC50 (Cytochrome P450 2A6) | Ki (Cytochrome P450 2A6) | IC50 [6]

OC[C@H]1O[C@@H]2O[C@H]3[C@H](O)[C@@H](O)[C@@H](O[C@H]4[C@H](O)[C@@H](O)[C@@H](O[C@H]5[C@H](O)[C@@H](O)[C@@H](O[C@H]6[C@H](O)[C@@H](O)[C@@H](O[C@H]7[C@H](O)[C@@H](O)[C@@H](O[C@H]1[C@H](O)[C@H]2O)O[C@@H]7CO)O[C@@H]6CO)O[C@@H]5CO)O[C@@H]4CO)O[C@@H]3CO [ALFADEX]
Not Active: IC50 [1] | IC50 [2] | IC50 [3] | IC50 [4] | IC50 [5] | IC50 (Cytochrome P450 2A6) | Ki (Cytochrome P450 2A6) | IC50 [6]

c1ccc2sc(SSc3nc4ccccc4s3)nc2c1 [BENZOTHIAZYL DISULFIDE]
Not Active: IC50 [1] | IC50 [2] | IC50 [3] | IC50 [4] | IC50 [5] | IC50 (Cytochrome P450 2A6) | Ki (Cytochrome P450 2A6) | IC50 [6]

CNC[C@H](O)c1ccc(O)c(O)c1 [EPINEPHRINE]
Not Active: IC50 [1] | IC50 [2] | IC50 [3] | IC50 [4] | IC50 [5] | IC50 (Cytochrome P450 2A6) | Ki (Cytochrome P450 2A6) | IC50 [6]
